Data from PubChem BioAssay AID2060902 (Molecular Pharmacology Branch, DTP, NCI, 2025).

System: 485368-065-R3-J5-PDC spheroids with HUVEC/MSC, viability
Assay: Anticancer human tumor 485368-065-R3-J5-PDC patient-derived pancreatic carcinoma cell line growth inhibition [RAS]
Conditions: for IC50: curve of first compound; for viability, T/C: stronger effect = lower value
How it was run: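 Multi-cell-type spheroids: tumor cells plus HUVEC endothelial cells and mesenchymal stem cells. RAS-pathway inhibitors were combined with targeted agents, each dosed in half-log steps down from clinical Cmax, or from 10 microM when Cmax was unknown.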
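Note: spheroids exposed to agents for seven days before readout.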

What does the source list for CC1(C)CCC(Nc2ncc(C(F)(F)F)c(-c3c[nH]c4c(P(C)(C)=O)c(C#N)ccc34)n2)CN1 (configuration not stated) + C#Cc1c(F)ccc2cc(O)cc(-c3ncc4c(N5CC6CCC(C5)N6)nc(OCC56CCCN5CC(F)C6)nc4c3F)c12?
IC50 (second compound 0.0316 µM): 3.18 nM; IC50 (second compound 0.1 µM): 3.83 nM; IC50 (second compound 0.316 µM): 4.39 nM; IC50 (second compound 1 µM): 4.77 nM; IC50 (second compound 3.16 µM): 4.85 nM; IC50 (second compound 10 µM): < 0.949 nM; viability, T/C (second compound 0.0316 µM, first compound 0.000949 µM): 89.8%; viability, T/C (second compound 0.0316 µM, first compound 0.003 µM): 51.1%; viability, T/C (second compound 0.0316 µM, first compound 0.00949 µM): 33.6%; viability, T/C (second compound 0.0316 µM, first compound 0.03 µM): 31%; viability, T/C (second compound 0.0316 µM, first compound 0.0949 µM): 27.3%; viability, T/C (second compound 0.0316 µM, first compound 0.3 µM): 30.2%; viability, T/C (second compound 0.1 µM, first compound 0.000949 µM): 92.7%; viability, T/C (second compound 0.1 µM, first compound 0.003 µM): 53.2%; viability, T/C (second compound 0.1 µM, first compound 0.00949 µM): 38.5%; viability, T/C (second compound 0.1 µM, first compound 0.03 µM): 29.4%; viability, T/C (second compound 0.1 µM, first compound 0.0949 µM): 27.7%; viability, T/C (second compound 0.1 µM, first compound 0.3 µM): 33.6%; viability, T/C (second compound 0.316 µM, first compound 0.000949 µM): 91.5%; viability, T/C (second compound 0.316 µM, first compound 0.003 µM): 56.4%; viability, T/C (second compound 0.316 µM, first compound 0.00949 µM): 36.4%; viability, T/C (second compound 0.316 µM, first compound 0.03 µM): 33.6%; viability, T/C (second compound 0.316 µM, first compound 0.0949 µM): 30.1%; viability, T/C (second compound 0.316 µM, first compound 0.3 µM): 28.8%; viability, T/C (second compound 1 µM, first compound 0.000949 µM): 85.2%; viability, T/C (second compound 1 µM, first compound 0.003 µM): 55.8%; viability, T/C (second compound 1 µM, first compound 0.00949 µM): 40.7%; viability, T/C (second compound 1 µM, first compound 0.03 µM): 36%; viability, T/C (second compound 1 µM, first compound 0.0949 µM): 30.8%; viability, T/C (second compound 1 µM, first compound 0.3 µM): 31.1%; viability, T/C (second compound 3.16 µM, first compound 0.000949 µM): 72.3%; viability, T/C (second compound 3.16 µM, first compound 0.003 µM): 56.3%; viability, T/C (second compound 3.16 µM, first compound 0.00949 µM): 41.2%; viability, T/C (second compound 3.16 µM, first compound 0.03 µM): 36.5%; viability, T/C (second compound 3.16 µM, first compound 0.0949 µM): 36.9%; viability, T/C (second compound 3.16 µM, first compound 0.3 µM): 35.6%; viability, T/C (second compound 10 µM, first compound 0.000949 µM): 41.6%; viability, T/C (second compound 10 µM, first compound 0.003 µM): 38.1%; viability, T/C (second compound 10 µM, first compound 0.00949 µM): 31.4%; viability, T/C (second compound 10 µM, first compound 0.03 µM): 35.4%; viability, T/C (second compound 10 µM, first compound 0.0949 µM): 30.4%; viability, T/C (second compound 10 µM, first compound 0.3 µM): 27.8%
